Laboratory results taken from patent US7618816B2, “Metal-binding therapeutic peptides” (Ontherix, Inc., priority 2005, dated 2009).
Where “and” joins values, the source holds several entries; their conditions need not be identical. Identical values can stand only once. Where a SMILES comes first, the peptide text is derived from it. Where no end group is shown, it is not given here. The star is where a group is joined. Biotin = O=C1N[C@H]2[C@H](CS[C@H]2CCCCC(=O)*)N1

Tests used:
SR = assay: Cytotoxicity of MBD therapeutic peptides; assay type: cell-based; settings: relative to equal dose of control MBD peptide, only p < 0.05 shown, 1-4 experiments
MOLT-4 = assay: Cytotoxicity of MBD therapeutic peptides; assay type: cell-based, human; settings: relative to equal dose of control MBD peptide, only p < 0.05 shown, 1-4 experiments
Source text: (§1) Also, peptides such as NFKB and CSK are of interest, targeting stress-coping mechanisms such as inflammation. The breast cancer lines tested are HS578T, MX-1, MDA-MB231, MDA-MB435 and MCF7. Leukemia cell lines tested for cytotoxicity effects with these MBD-tagged peptides are CCRF-CEM, RPMI-8226 and MOLT-4. Overall, MCF-7 and CCRF-CEM yield the most consistent data and the strongest effect across the board (Table 12). In addition, elevated levels of cytotoxicity are observed when multiple peptides are combined while keeping the overall amount of peptide added constant. Cytotoxicity increases with the number of peptides added per cocktail and is further enhanced by combining peptide cocktail treatment with paclitaxel.

CCRF-CEM = assay: Cytotoxicity of MBD therapeutic peptides; assay type: cell-based, human; settings: relative to equal dose of control MBD peptide, only p < 0.05 shown, 1-4 experiments
Source text: as §1

RPMI-8826 = assay: Cytotoxicity of MBD therapeutic peptides; assay type: cell-based, human; settings: relative to equal dose of control MBD peptide, only p < 0.05 shown, 1-4 experiments
Source text: as §1

MDA-MB435 = assay: Cytotoxicity of MBD therapeutic peptides; assay type: cell-based; settings: relative to equal dose of control MBD peptide, only p < 0.05 shown, 1-4 experiments
Source text: as §1

Hs578T = assay: Cytotoxicity of MBD therapeutic peptides; assay type: cell-based; settings: relative to equal dose of control MBD peptide, only p < 0.05 shown, 1-4 experiments
Source text: as §1

MX-I = assay: Cytotoxicity of MBD therapeutic peptides; assay type: cell-based, human; settings: relative to equal dose of control MBD peptide, only p < 0.05 shown, 1-4 experiments
Source text: as §1

MCF-7 = assay: Cytotoxicity of MBD therapeutic peptides; assay type: cell-based, human; settings: relative to equal dose of control MBD peptide, only p < 0.05 shown, 1-4 experiments
Source text: as §1

MDA-MB231 = assay: Cytotoxicity of MBD therapeutic peptides; assay type: cell-based, human; settings: relative to equal dose of control MBD peptide, only p < 0.05 shown, 1-4 experiments
Source text: as §1

cancer cells = assay: Selective cytotoxicity, cancer cells versus normal counterparts; assay type: cell-based, human
Source text: as §1

Row | Compound | % viability @ 48 hr/25 ug/ml peptide, SR (SR) | % viability @ 48 hr/25 ug/ml peptide, MOLT-4 (MOLT-4) | % viability @ 48 hr/25 ug/ml peptide, CCRF-CEM (CCRF-CEM) | % viability @ 48 hr/25 ug/ml peptide, RPMI-8826 (RPMI-8826) [%] | % viability @ 48 hr/25 ug/ml peptide, MDA-MB435 (MDA-MB435) | % viability @ 48 hr/25 ug/ml peptide, Hs578T (Hs578T) | % viability @ 48 hr/25 ug/ml peptide, MX-I (MX-I) | % viability @ 48 hr/25 ug/ml peptide, MCF-7 (MCF-7) | % viability @ 48 hr/25 ug/ml peptide, MDA-MB231 (MDA-MB231) [%] | Cytotoxic effect on cancer cells versus normal counterparts (in words) (cancer cells)
1 | Biotin-KKGFYKKKQCRPSKGRKRGFCWAVQTLLQQMQDKFQTMSDQI (cysteines drawn unpaired) [M9HSBP2] | 88.9 ± 4.0% and 87.7 ± 6.7% | 94.2 ± 17.1% | 92.6 ± 2.0% | 81.7 ± 2.9 | – | – | – | – | – | –
2 | CC(C)C[C@H](NC(=O)[C@H](C)NC(=O)[C@H](C)NC(=O)[C@H](Cc1c[nH]c2ccccc12)NC(=O)[C@H](CS)NC(=O)[C@H](Cc1ccccc1)NC(=O)CNC(=O)[C@H](CCCNC(=N)N)NC(=O)[C@H](CCCCN)NC(=O)[C@H](CCCNC(=N)N)NC(=O)CNC(=O)[C@H](CCCCN)NC(=O)[C@H](CO)NC(=O)[C@@H]1CCCN1C(=O)[C@H](CCCNC(=N)N)NC(=O)[C@H](CS)NC(=O)[C@H](CCC(N)=O)NC(=O)[C@H](CCCCN)NC(=O)[C@H](CCCCN)NC(=O)[C@H](CCCCN)NC(=O)[C@H](Cc1ccc(O)cc1)NC(=O)[C@H](Cc1ccccc1)NC(=O)CNC(=O)[C@H](CCCCN)NC(=O)[C@H](CCCCN)NC(=O)CCCC[C@@H]1SC[C@@H]2NC(=O)N[C@@H]21)C(=O)N[C@@H](CC(=O)O)C(=O)N[C@@H](Cc1c[nH]c2ccccc12)C(=O)N[C@@H](CO)C(=O)N[C@@H](Cc1c[nH]c2ccccc12)C(=O)N[C@@H](CC(C)C)C(=O)N[C@@H](CCC(N)=O)C(=O)N[C@H](C(=O)O)[C@@H](C)O [NEMO] (Biotin-KKGFYKKKQCRPSKGRKRGFCWAALDWSWLQT-OH) | 56.9 ± 6.2% | – | – | – | 67.4 ± 21.1% and 90.2 ± 3.6% | 81.3 ± 3.0% | 59.1 ± 3.2% | 77.0 ± 46.7% | 79.0 ± 0.8 | –
3 | CC(C)[C@H](NC(=O)[C@H](C)NC(=O)[C@H](Cc1c[nH]c2ccccc12)NC(=O)[C@H](CS)NC(=O)[C@H](Cc1ccccc1)NC(=O)CNC(=O)[C@H](CCCNC(=N)N)NC(=O)[C@H](CCCCN)NC(=O)[C@H](CCCNC(=N)N)NC(=O)CNC(=O)[C@H](CCCCN)NC(=O)[C@H](CO)NC(=O)[C@@H]1CCCN1C(=O)[C@H](CCCNC(=N)N)NC(=O)[C@H](CS)NC(=O)[C@H](CCC(N)=O)NC(=O)[C@H](CCCCN)NC(=O)[C@H](CCCCN)NC(=O)[C@H](CCCCN)NC(=O)[C@H](Cc1ccc(O)cc1)NC(=O)[C@H](Cc1ccccc1)NC(=O)CNC(=O)[C@H](CCCCN)NC(=O)[C@H](CCCCN)NC(=O)CCCC[C@@H]1SC[C@@H]2NC(=O)N[C@@H]21)C(=O)N[C@@H](C)C(=O)N[C@@H](CCC(=O)O)C(=O)N[C@@H](Cc1ccc(O)cc1)C(=O)N[C@@H](C)C(=O)N[C@@H](CCCNC(=N)N)C(=O)N[C@H](C(=O)N[C@@H](CCC(N)=O)C(=O)N[C@@H](CCCCN)C(=O)N[C@@H](CCCNC(=N)N)C(=O)N[C@@H](CCCCN)C(=O)O)C(C)C [CSK] (Biotin-KKGFYKKKQCRPSKGRKRGFCWAVAEYARVQKRK-OH) | – | 81.0 ± 7.1% and 54.8 ± 9.7% | 75.1 ± 4.5% and 85.5 ± 2.3% | – | – | 50.2 ± 1.6% and 76.3 ± 0.6% | – | 21.1 ± 4.1% and 41.3 ± 5.8% | – | –
4 | CC(C)C[C@H](NC(=O)[C@H](CC(C)C)NC(=O)[C@H](CCCCN)NC(=O)[C@H](Cc1c[nH]c2ccccc12)NC(=O)[C@@H](NC(=O)[C@H](CC(=O)O)NC(=O)[C@H](CO)NC(=O)[C@H](Cc1ccccc1)NC(=O)[C@@H](NC(=O)[C@H](CCC(=O)O)NC(=O)CCCC[C@@H]1SC[C@@H]2NC(=O)N[C@@H]21)[C@@H](C)O)C(C)C)C(=O)N[C@@H](CCCCN)C(=O)N[C@@H](CCCCN)C(=O)NCC(=O)N[C@@H](Cc1ccccc1)C(=O)N[C@@H](Cc1ccc(O)cc1)C(=O)N[C@@H](CCCCN)C(=O)N[C@@H](CCCCN)C(=O)N[C@@H](CCCCN)C(=O)N[C@@H](CCC(N)=O)C(=O)N[C@@H](CS)C(=O)N[C@@H](CCCNC(=N)N)C(=O)N1CCC[C@H]1C(=O)N[C@@H](CO)C(=O)N[C@@H](CCCCN)C(=O)NCC(=O)N[C@@H](CCCNC(=N)N)C(=O)N[C@@H](CCCCN)C(=O)N[C@@H](CCCNC(=N)N)C(=O)NCC(=O)N[C@@H](Cc1ccccc1)C(=O)N[C@@H](CS)C(=O)N[C@@H](Cc1c[nH]c2ccccc12)C(=O)O [PEP-2] (Biotin-ETFSDVWKLLKKGFYKKKQCRPSKGRKRGFCW-OH) | 33.7 ± 16.0% | 63.5 ± 7.7% and 57.9 ± 1.3% and 88.2 ± 2.6% | – | 38.4 ± 4.2 | 18.5 ± 1.0% | 31.1 ± 3.0% and 33.5 ± 2.3% | 6.8 ± 1.5% and 9.0 ± 0.6% | 19.3 ± 6.3% and 33.5 ± 4.4% and 35.6 ± 5.7% | 40.7 ± 1.8 | strong cytotoxic effect on cancer cells but not their human counterparts
5 | CSCC[C@H](NC(=O)[C@H](CC(C)C)NC(=O)[C@H](CCCCN)NC(=O)[C@H](CCC(N)=O)NC(=O)[C@H](CCCNC(=N)N)NC(=O)[C@H](CCCCN)NC(=O)[C@H](CCCNC(=N)N)NC(=O)[C@H](CCC(N)=O)NC(=O)[C@@H](NC(=O)[C@@H]1CCCN1C(=O)[C@H](C)NC(=O)[C@H](Cc1c[nH]c2ccccc12)NC(=O)[C@H](CS)NC(=O)[C@H](Cc1ccccc1)NC(=O)CNC(=O)[C@H](CCCNC(=N)N)NC(=O)[C@H](CCCCN)NC(=O)[C@H](CCCNC(=N)N)NC(=O)CNC(=O)[C@H](CCCCN)NC(=O)[C@H](CO)NC(=O)[C@@H]1CCCN1C(=O)[C@H](CCCNC(=N)N)NC(=O)[C@H](CS)NC(=O)[C@H](CCC(N)=O)NC(=O)[C@H](CCCCN)NC(=O)[C@H](CCCCN)NC(=O)[C@H](CCCCN)NC(=O)[C@H](Cc1ccc(O)cc1)NC(=O)[C@H](Cc1ccccc1)NC(=O)CNC(=O)[C@H](CCCCN)NC(=O)[C@H](CCCCN)NC(=O)CCCC[C@@H]1SC[C@@H]2NC(=O)N[C@@H]21)C(C)C)C(=O)N1CCC[C@H]1C(=O)O [NFKB] (Biotin-KKGFYKKKQCRPSKGRKRGFCWAPVQRKRQKLMP-OH) | – | 35.9 ± 6.8% and 22.5 ± 3.5% | 47.4 ± 13.9% | 64.6 ± 14.3 | 18.0 ± 1.6% and 29.6 ± 2.6% | 36.3 ± 5.6% and 30.6 ± 2.7% | 74.1 ± 6.1% | 32.8 ± 17.7% | 91.6 ± 6.1 | –
